{
  "source": "patent US8501911B2",
  "about": "“Methods of reducing inflammation and mucus hypersecretion” (Biomarck Pharmaceuticals, Ltd, priority 1999, dated 2013)",
  "key": {"[1]": {"tested_on": "NHBE cells", "assay": "UTP-induced mucin secretion from NHBE cells (ELISA)", "type": "cell-based, human", "settings": "TNF-α 10 ng/ml 4 h, then UTP 0.1 mM 2 h", "description": "In Results-I-1D, NHBE cells were preincubated with the indicated inhibitor for 15 min and then stimulated with 100 μM UTP for 2 h. Secreted mucin in response to the treatment was collected and assayed by ELISA. Data are presented as mean±S.E. (n=6 at each point).\nUTP is a well defined pathophysiologically relevant mucin secretagogue. Lethem ct al., Am. J. Respir. Cell Mol. Biol. 9, 315-322 (1993). […] To determine whether PKC and PKG were involved in regulation of mucin secretion in response to a pathophysiological stimulus, effects of PKC/PKG inhibitors on UTP-induced mucin secretion were investigated. NHBE cells were preincubated with various inhibitors for 15 min and then exposed to UTP (100 μM) plus the inhibitor for 2 h. The secreted mucin was measured by ELISA. […] Apparently, mucin secretion in NHBE cells may be regulated by a signaling mechanism involving both PKC and PKG.\nPeptide Blocking Studies—NHBE cells were preincubated with either the MANS or the RNS peptide (1-100 μM) for 15 min, and then PMA (100 nM)+8-Br-cGMP (1 μM) or UTP (100 μM) was added, and cells were incubated for an additional 15 min or 2 h. respectively. Mucin secretion was measured by ELISA and experimental results are designated as Results-I-2B-1 and Results-I-2B-2, as follows.\nPP2A is an essential component of the mucin secretory pathway. NHBE cells were preincubated with the indicated concentration of fostriecin, okadaic acid (500 nM), or medium alone for 15 min and then stimulated with PMA (100 nM)+8-Br-cGMP (1 μM) for 15 min or with UTP (100 μM) for 2 h. Secreted mucin was measured by ELISA. […] Thus, dephosphorylation of MARCKS by a PKG-activated PP2A appears to be an essential component of the signaling pathway leading to mucin granule exocytosis.\nMeasurement of Mucin Secretion by ELISA—Before collection of “base line” and “test” mucin samples, the accumulated mucus at the apical surface of the cells was removed by washing with phosphate-buffered saline, pH 7.2. To collect the base-line secretion, cells were incubated with medium alone, and secreted mucin in the apical medium was collected and reserved. Cells were rested for 24 h and then exposed to medium containing the selected stimulatory and/or inhibitory reagents (or appropriate controls), after which secreted mucin was collected and reserved as the test sample. Incubation times for the base line and the test were the same but varied depending on the test reagent utilized. Both base line and test secretions were analyzed by ELISA using an antibody capture method as known in the art. See, e.g., Harlow et al., Antibodies: A Laboratory Manual, pp. 570-573, Cold Spring Harbor Laboratory, Cold Spring Harbor, N.Y. (1988). The primary antibody for this assay was 17Q2 (Babco, Richmond, Calif.), a monoclonal antibody that reacts specifically with a carbohydrate epitope on human airway mucins. The ratio of test/base-line mucin, which is similar to a “secretory index”, was used to quantify mucin secretion, allowing each culture dish to serve as its own control and thus, minimizing deviation caused by variability among culture wells. Wright et al., Am. J. Physiol. 271, L854-L861 (1996). Levels of mucin secretion were reported as percentage of the medium control.\nThese experiments were carried out similarly to those described in Example 7. To test for stimulated secretion, the cells were exposed apically and basolaterally to uridine 5′-triphosphate (UTP) at a concentration of 0.1 mM in media. Cells were pre-incubated for 15 minutes with the MANS peptide and test cultures were then co-incubated with the MANS peptide and UTP for 45 minutes.\nNHBE cells were pre-incubated with okadaic acid (500 nM) for 15 min at 37° C./5% CO2, then stimulated with PMA (100 nM)+8-Br-cGMP (1 μM) for 15 min, or with UTP (0.1 mM) for 2 hours. Secreted mucin in the apical medium was collected and assayed by ELISA. […]"}, "[2]": {"tested_on": "NHBE cells", "assay": "PMA+8-Br-cGMP-induced mucin secretion from NHBE cells (ELISA)", "type": "cell-based, human", "settings": "TNF-α 10 ng/ml 4 h, then PMA 100 nM+8-Br-cGMP 1 μM 15 min", "summary_of_the_method": "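NHBE cells were preincubated 15 min with MANS or RNS peptide (1-100 μM), fostriecin or okadaic acid (500 nM), or treated 3 days with 5 μM antisense/control oligonucleotide, then stimulated with PMA (100 nM)+8-Br-cGMP (1 μM) for 15 min. Apical mucin measured by ELISA (17Q2 antibody); test/base-line ratio reported as percent of medium control.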"}},
  "data": [
    {"substance": "TNF-α", "values": [
      {"measurement": "Mucin secretion level, % of control", "setting": "[1]", "result": 191, "unit": "%"},
      {"measurement": "Mucin secretion level, % of control", "setting": "[2]", "result": 255, "unit": "%"}
    ]}
  ]
}
